Consider one compound from patent US11401260B2, “Biochemical binding of RET9 and VEGFR2 inhibitors” (Kala Pharmaceuticals, Inc., priority 2017, dated 2022).

One experiment deals with RET9 (Homo sapiens (Human), UniProt P07949). The experiment is described as follows: RET9 competition binding assay (DISCOVERX KINOMESCAN). The method, then:
A competition binding assay ([…]) was used to measure the ability of a compound to compete for binding of an immobilized adenosine triphosphate (ATP) site directed ligand using a DNA-tagged vascular endothelial growth receptor 2 (VEGFR2) as the target. The ability of the test compound to compete with the immobilized ligand was measured using quantitative polymerase chain reaction (qPCR) of the DNA tag (Fabian, M. A. et al., 23 Nature Biotechnology 329-336 (2005); Karaman, M. W. et al., 26 Nature Biotechnology 127-132 (2008)). Similarly, a competition binding assay ([…]) was used to determine the dissociation constant (Kd) of Compound 1 to RET9.

The target of experiment [1] is vascular endothelial growth receptor 2 (VEGFR2) (Homo sapiens (Human), UniProt P35968). The experiment can be described thus: VEGFR2 competition binding assay (DISCOVERX KINOMESCAN). The settings on record: 11-point dose response, 3-fold serial dilution starting at 1 μM. The method, then:
A competition binding assay ([…]) was used to measure the ability of a compound to compete for binding of an immobilized adenosine triphosphate (ATP) site directed ligand using a DNA-tagged vascular endothelial growth receptor 2 (VEGFR2) as the target. The ability of the test compound to compete with the immobilized ligand was measured using quantitative polymerase chain reaction (qPCR) of the DNA tag (Fabian, M. A. et al., 23 Nature Biotechnology 329-336 (2005); Karaman, M. W. et al., 26 Nature Biotechnology 127-132 (2008)). A VEGFR2 tagged T7 phage strain was prepared in an Escherichia coli (E. coli) derived from the BL21 strain. The E. coli were grown to log-phase, infected with VEGFR2 tagged T7 phage and then incubated with shaking at 32° C. until lysis. The lysate containing the kinase was then centrifuged and filtered to remove cell debris. Affinity resin for the VEGFR2 assay was prepared by treating Streptavidin-coated magnetic beads with a biotinylated small molecule ligand for 30 minutes at room temperature. […] The VEGFR2 concentration in the eluate was measured using qPCR. […] Binding constants were calculated with standard dose-response curve using the Hill equation with Hill slope set to -1. […]

Chain of vascular endothelial growth receptor 2 (VEGFR2) (P35968 20-1356): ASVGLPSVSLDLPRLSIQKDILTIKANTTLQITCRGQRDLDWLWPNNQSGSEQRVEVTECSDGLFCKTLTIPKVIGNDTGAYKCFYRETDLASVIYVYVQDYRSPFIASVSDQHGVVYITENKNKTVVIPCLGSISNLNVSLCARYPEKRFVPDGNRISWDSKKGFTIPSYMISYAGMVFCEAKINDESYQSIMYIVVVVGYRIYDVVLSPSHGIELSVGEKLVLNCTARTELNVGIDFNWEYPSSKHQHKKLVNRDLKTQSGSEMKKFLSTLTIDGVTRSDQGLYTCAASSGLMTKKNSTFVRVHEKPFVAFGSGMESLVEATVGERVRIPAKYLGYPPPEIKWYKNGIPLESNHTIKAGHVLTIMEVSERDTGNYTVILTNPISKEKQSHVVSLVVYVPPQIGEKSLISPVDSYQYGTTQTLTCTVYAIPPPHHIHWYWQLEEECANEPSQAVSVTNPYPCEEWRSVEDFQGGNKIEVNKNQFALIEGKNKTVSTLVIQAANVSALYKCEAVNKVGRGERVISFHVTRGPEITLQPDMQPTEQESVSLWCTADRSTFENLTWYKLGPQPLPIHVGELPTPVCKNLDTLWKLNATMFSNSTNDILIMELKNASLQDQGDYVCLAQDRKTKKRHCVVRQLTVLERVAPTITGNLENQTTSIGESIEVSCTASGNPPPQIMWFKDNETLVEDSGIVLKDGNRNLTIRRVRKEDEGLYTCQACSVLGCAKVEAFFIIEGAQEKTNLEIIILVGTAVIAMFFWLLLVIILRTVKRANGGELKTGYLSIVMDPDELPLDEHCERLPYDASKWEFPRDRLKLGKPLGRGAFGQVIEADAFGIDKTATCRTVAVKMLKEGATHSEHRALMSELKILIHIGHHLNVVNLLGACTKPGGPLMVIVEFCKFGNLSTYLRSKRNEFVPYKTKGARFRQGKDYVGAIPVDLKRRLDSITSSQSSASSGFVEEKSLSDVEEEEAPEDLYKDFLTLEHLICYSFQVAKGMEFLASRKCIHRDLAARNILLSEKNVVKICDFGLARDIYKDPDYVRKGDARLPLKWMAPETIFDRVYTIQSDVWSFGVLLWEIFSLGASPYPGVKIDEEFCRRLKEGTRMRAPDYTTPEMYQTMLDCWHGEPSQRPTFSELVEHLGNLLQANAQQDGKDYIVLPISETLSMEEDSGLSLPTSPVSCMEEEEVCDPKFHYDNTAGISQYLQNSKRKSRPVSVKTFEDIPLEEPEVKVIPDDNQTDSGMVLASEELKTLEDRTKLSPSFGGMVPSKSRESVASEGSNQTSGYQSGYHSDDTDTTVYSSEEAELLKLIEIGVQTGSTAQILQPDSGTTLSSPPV
Chain of RET9 (P07949 other isoform, or with tags, fused parts or gaps): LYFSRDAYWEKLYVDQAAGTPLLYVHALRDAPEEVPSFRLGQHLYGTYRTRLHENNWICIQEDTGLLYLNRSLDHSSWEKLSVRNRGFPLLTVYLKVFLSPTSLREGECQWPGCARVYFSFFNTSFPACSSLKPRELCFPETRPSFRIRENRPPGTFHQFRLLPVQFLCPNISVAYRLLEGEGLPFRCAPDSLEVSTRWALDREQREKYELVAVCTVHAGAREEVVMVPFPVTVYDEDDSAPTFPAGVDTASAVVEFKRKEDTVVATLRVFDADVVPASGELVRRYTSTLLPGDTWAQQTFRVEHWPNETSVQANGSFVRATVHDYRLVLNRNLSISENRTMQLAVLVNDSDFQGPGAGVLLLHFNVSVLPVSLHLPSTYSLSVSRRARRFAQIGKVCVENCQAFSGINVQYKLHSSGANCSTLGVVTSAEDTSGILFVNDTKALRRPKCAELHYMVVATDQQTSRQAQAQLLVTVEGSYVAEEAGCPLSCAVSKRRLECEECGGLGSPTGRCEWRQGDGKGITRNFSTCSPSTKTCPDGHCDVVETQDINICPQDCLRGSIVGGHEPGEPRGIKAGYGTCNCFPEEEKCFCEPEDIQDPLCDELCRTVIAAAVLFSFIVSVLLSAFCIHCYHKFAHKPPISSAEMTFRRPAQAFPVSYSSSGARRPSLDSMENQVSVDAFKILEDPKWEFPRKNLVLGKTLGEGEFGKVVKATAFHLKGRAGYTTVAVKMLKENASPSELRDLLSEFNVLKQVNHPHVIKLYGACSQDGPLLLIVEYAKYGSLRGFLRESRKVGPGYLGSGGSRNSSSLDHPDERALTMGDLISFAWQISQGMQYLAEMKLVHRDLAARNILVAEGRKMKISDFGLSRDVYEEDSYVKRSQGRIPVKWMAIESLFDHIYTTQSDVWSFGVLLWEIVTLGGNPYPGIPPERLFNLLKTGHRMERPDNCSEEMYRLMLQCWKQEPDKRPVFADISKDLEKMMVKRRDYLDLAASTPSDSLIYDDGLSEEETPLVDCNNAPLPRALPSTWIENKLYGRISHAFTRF

In the case of `COc1cc2c(Oc3ccc4[nH]c(C)cc4c3F)ncnc2cc1OCCCN1CCC(CO)(CO)CC1` [Compound 1, 7-(3-[4,4-bis(hydroxymethyl)-1-piperidinyl]propoxy)-4-(4-fluoro-2-methyl-1H-indol-5-yloxy)-6-methoxyquinazoline], the dissociation constant Kd on RET9 stood at 3.9 nM; in experiment [1] it was 0.38 nM.
